Experiment [1] deals with Proto-oncogene tyrosine-protein kinase Src (Homo sapiens, UniProt P12931). In words: Inhibition of SRC (unknown origin).
Experiment [2] deals with Mitogen-activated protein kinase 1 (Homo sapiens, UniProt P28482). In words: Inhibition of ERK2 (unknown origin).
Another experiment deals with T1, Aurora kinase A (Homo sapiens, UniProt O14965).
T1 sequence (O14965 whole entry): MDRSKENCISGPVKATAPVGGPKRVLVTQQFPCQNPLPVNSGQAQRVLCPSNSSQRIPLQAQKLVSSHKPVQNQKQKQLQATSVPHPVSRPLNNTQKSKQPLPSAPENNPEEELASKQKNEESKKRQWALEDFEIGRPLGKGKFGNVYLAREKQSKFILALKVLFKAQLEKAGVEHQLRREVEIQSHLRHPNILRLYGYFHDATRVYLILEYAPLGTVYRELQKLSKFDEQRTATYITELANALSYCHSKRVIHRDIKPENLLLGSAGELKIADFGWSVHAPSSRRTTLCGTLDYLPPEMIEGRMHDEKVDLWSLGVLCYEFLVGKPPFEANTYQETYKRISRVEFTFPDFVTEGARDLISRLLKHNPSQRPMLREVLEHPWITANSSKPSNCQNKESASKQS
In words: Inhibition of Aurora2 (unknown origin).

Experiment [3] concerns the target T2, Glycogen synthase kinase-3 (Homo sapiens, UniProt P49840+P49841). Briefly: Inhibition of GSK3 (unknown origin). It counts as protein assay.
The target in experiment [4] is T2, Glycogen synthase kinase-3. In words: Inhibition of GSK3 (unknown origin) at 1 uM. The class given is protein assay.
For experiment [5], the target named is Glycogen synthase kinase-3 beta (Homo sapiens, UniProt P49841). Briefly: Inhibition of GSK3beta (unknown origin).

Data on ten compounds can be found in ChEMBL document CHEMBL3046328, “Ligand-based pharmacophore detection, screening of potential pharmacophore and docking studies, to get effective glycogen synthase kinase inhibitors” (Med Chem Res, 2013).

Chain of Mitogen-activated protein kinase 1 (P28482 whole entry): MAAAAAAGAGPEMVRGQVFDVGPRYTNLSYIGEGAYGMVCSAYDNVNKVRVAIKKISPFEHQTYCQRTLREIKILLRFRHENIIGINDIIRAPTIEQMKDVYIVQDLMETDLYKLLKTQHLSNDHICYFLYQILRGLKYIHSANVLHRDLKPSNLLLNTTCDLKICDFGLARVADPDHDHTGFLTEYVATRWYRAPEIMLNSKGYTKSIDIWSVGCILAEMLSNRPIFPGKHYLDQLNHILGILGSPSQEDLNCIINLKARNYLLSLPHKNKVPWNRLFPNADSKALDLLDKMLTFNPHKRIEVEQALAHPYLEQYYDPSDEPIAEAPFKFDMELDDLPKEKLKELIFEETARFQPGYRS
Chain of Proto-oncogene tyrosine-protein kinase Src (P12931 2-536 limits assumed): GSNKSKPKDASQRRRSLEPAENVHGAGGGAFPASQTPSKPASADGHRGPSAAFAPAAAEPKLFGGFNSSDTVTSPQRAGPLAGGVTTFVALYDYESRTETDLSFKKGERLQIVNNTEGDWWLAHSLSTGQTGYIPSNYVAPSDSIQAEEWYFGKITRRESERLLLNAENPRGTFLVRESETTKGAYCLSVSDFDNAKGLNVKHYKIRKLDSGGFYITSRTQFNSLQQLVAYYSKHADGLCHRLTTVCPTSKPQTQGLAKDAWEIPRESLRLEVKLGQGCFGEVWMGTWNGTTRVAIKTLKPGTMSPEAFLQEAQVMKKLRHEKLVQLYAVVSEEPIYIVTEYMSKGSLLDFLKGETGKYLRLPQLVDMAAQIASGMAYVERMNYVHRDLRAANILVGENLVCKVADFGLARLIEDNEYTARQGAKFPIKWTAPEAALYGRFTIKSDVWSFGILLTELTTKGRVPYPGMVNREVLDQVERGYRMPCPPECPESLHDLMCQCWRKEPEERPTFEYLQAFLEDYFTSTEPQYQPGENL
Chain of Glycogen synthase kinase-3 beta (P49841 whole entry): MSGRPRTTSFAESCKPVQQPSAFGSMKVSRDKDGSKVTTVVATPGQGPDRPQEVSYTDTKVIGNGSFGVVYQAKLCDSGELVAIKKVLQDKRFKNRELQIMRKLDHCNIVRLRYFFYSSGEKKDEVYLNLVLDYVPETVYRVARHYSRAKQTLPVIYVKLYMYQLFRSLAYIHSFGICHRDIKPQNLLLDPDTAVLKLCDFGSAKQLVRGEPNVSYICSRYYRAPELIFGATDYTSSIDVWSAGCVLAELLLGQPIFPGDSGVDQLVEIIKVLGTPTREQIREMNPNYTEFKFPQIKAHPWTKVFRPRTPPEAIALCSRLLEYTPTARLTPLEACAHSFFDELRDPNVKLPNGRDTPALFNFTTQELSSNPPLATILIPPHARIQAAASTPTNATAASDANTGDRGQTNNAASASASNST
T2 sequence (P49840 whole entry, looked up): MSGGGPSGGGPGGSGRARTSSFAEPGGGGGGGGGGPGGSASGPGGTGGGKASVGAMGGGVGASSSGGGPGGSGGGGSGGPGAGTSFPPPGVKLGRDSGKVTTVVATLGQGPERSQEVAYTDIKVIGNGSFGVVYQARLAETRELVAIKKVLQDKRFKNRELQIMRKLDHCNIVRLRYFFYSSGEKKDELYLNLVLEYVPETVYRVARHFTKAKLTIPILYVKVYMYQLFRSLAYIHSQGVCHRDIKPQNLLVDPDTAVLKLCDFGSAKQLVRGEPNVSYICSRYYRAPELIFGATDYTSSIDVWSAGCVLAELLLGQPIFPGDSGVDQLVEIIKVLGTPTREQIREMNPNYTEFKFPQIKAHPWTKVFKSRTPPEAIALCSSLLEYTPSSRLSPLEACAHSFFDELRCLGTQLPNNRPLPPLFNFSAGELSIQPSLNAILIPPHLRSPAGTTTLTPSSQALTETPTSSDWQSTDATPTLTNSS
T2 sequence (P49841 whole entry, looked up): as the sequence (P49841 whole entry) above

For `Cc1nc[nH]c1[C@@H]1c2nc[nH]c2CCN1Cc1nc2ccccc2[nH]1`, the Ki was under 0.1 µM in experiment [1], 1000 µM in experiment [2], under 100 µM on Aurora kinase A and under 100 µM in experiment [3].

`Cc1cccn2cc(CN(Cc3nc4ccccc4c(=O)[nH]3)C(C)C)nc12`: the Ki is under 0.1 µM in experiment [1], 1000 µM in experiment [2], under 100 µM at Aurora kinase A and under 100 µM in experiment [3].

`CCN(Cc1cn2cccc(C)c2n1)Cc1nc2ccccc2c(=O)[nH]1`: the IC50 in experiment [3] is under 10 µM.

`CCSc1nc2c([nH]1)[nH]c1ccccc12` returned an inhibition in experiment [4] of 63%.

For the compound `Cc1nc[nH]c1[C@H]1c2nc[nH]c2CCN1Cc1nc2ccccc2[nH]1`, the Ki in experiment [1] was under 0.1 µM; in experiment [2], 1000 µM; at Aurora kinase A, under 100 µM; in experiment [3], under 100 µM.

For the compound `C[n+]1c2ccccc2[n+]2[nH]c3ccccc3n12`, in experiment [3], the IC50 was 1 µM.

Turning to `Cc1ccc(-c2c[nH]c(C3COCCN3Cc3c[nH]c4ccccc34)n2)cc1` (stereo not given), in experiment [5], the IC50 was 0.12 µM.

As for `O=[N+]([O-])c1ccc2c(c1)[n+]([O-])c1c3ccccc3[nH]c1[n+]2[O-]`, the Ki in experiment [2] is under 1 µM. The 50% inhibitory concentration (IC50) against Aurora kinase A was under 5 µM.

The compound `O=C(N=c1[nH]c2ccccc2[nH]1)NC[C@H]1CCC[C@@H](CNC(=O)N=c2[nH]c3ccccc3[nH]2)C1` had a concentration for half-maximal inhibition (IC50) in experiment [3] of 1 µM.

Compound `CCN(CC)CCCNc1nc2ccccc2c2[nH]c3ccc(OC)cc3c12` yielded an IC50 in experiment [3] of 1 µM.
